Laboratory results from patent US12173309B2, “Compounds for increasing genome editing efficiency” (Max-Planck-Gesellschaft zur Förderung der Wissenschaften …, priority 2017, dated 2024).

What was measured:
409-B2 hiPSCs = test: PGE efficiency with recombinant Cpf1 ribonucleoprotein electroporation; assay type: cell-based, human
Description: The recombinant A.s. Cpf1 and S.p. Cas9 protein and electroporation enhancer was ordered from IDT (Coralville, USA) and nucleofection was done using the manufacturer's protocol, except for the following alterations. […] Cells were counted using the Countess Automated Cell Counter (Invitrogen). […]
CRISPresso (Pinello et al. 2016) was used to analyse sequencing data from CRISPR genome editing experiments for percentage of wildtype, targeted nucleotide substitutions (TNS), indels and mix of TNS and indels. […] Sequencing data from colonies after single cell seeding (FIGS. 3B and C) was further analyzed by evaluating the actual read sequences using SAMtools. Clonal colonies were differentiated from mixed colonies using sequence read proportions. Colonies were counted as clones if the clear majority of reads consisted of a single sequence (homozygous) or of two sequences of similar read count (heterozygous). […]

[1] = test system: 409-B2 iCRISPR-Cas9n hiPSCs; test: BFP insertion (871 nt ssODN) efficiency in AAVS1 iCRISPR locus, microscopy; assay type: cell-based, human; settings: 7 days of BFP expression
Description: FIG. 8: Impact of the CRISPY mix and its component NU7026 on BFP insertion (ssODN) efficacy in human induced pluripotent stem cells. The design of the mtagBFP2 (Subach et al. 2011) ssODN donor and the iCRISPR system is shown in (A). We inserted a 871 nt (including 50 nt homology arms) sequence coding for a 2A-self cleaving peptide in front of a Blue Fluorescent Protein (BFP), directly after the N-terminal nuclear localization signal sequence (NLS) of the Cas9n in the heterozygous AAVS1 iCRISPR locus (409-B2 iCRISPR-Cas9n hiPSCs). If the sequence is inserted, doxycycline will lead to expression of nucleus-imported BFP. […] Two images (50× magnification, white size bar 200 μm) from each of three technical replicates for the respective treatments were used to quantify the percentage of cells with BFP insertion using ImageJ (C).
409-B2 iCRISPR-Cas9n hiPSCs were nucleofected with gRNAs and the Blue Fluorescent Protein (BFP) single stranded oligo (FIG. 8A, 330 ng) in […] for either mock, NU7026, and CRISPY mix treatment. […] Images were blinded and BFP positive nuclei were counted using the Adobe Photoshop CS5 counting tool. Propidium iodide positive nuclei were quantified using ImageJ by dividing the area of nuclei (default threshold) with the mean area of a single nucleus.

## O=c1cc(N2CCOCC2)oc2c1ccc1ccccc12 [NU7026]
409-B2 hiPSCs; DMNT1
  PGE increase: 2.4 fold
409-B2 hiPSCs; HPRT
  PGE increase: 2.1 fold
[1]
  nuclei positive for BFP: 6%
[1]; vs no-CRISPY control (3.7%)
  increase of nuclei positive for BFP: 1.6 fold
